{"source": "PubChem BioAssay AID2060502", "about": "(Molecular Pharmacology Branch, DTP, NCI, 2025);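 also: spheroids exposed to agents for seven days before readout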;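 as to viability, T/C: percent of vehicle control viability where 100% = DMSO wells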", "system": "885724-159-R-J1-PDC complex spheroid viability", "test": "Anticancer human tumor 885724-159-R-J1-PDC patient-derived pancreatic adenocarcinoma cell line growth inhibition [GQUAD]", "details": "for IC50: curve of first compound; for viability, T/C: stronger effect = lower value", "description": "DNA G-quadruplex Stabilizer Agents in Combinations in Complex Spheroids\nA high-throughput screen of multi-cell type tumor spheroids was designed to identify active combinations of DNA G-quadruplex stabilizer agents and targeted small molecules. Complex spheroids include a stromal component modeled by human endothelial cells (HUVEC) and fibroblasts modeled by human mesenchymal stem cells (MSCs). The concentration ranges selected for each drug and investigational agent were based upon clinically achievable concentrations if the clinical Cmax of the agent was known.\nCompounds. The drugs and investigational agents: pidnarulex (CX-5461; NSC782164), APTO-253 (NSC789042), BRACO-19 (NSC847499), peposertib (NSC802822), ceralasertib (NSC780249), elimusertib (NSC800525), camonsertib (NSC841442), AZD-1390 (NSC803789), olaparib (NSC753686), talazoparib (NSC767125), ART-558 (NSC835418), sotorasib (NSC818433), MRTX-1133 (NSC836407), SN-38 (NSC673596), topotecan (NSC609699), etoposide (NSC141540), doxorubicin (NSC123127), gemcitabine (NSC613327), 5-fluorouracil (NSC19893), paclitaxel (NSC125973), vemurafenib (NSC761431), panobinostat (NSC761190), R-306465 (JNJ-16241199; NSC773264), adavosertib (NSC754352), TP-3654 (NSC805149), carboplatin (NSC241240), KSQ-4279 (NSC840948), and staurosporine (NSC755774) were obtained from the National Cancer Institute (NCI) Developmental Therapeutics Program Chemical Repository (34). The FDA-approved anticancer drug set is available from the NCI Developmental Therapeutics Program. […] The stock solutions were prepared in dimethyl sulfoxide (DMSO, Sigma-Aldrich, St. Louis, MO, cat. D2650) at 800-fold the tested concentration and stored at -70 degrees C prior to their use. All drugs and investigational agents were tested over a range starting from a high concentration at or near the clinical Cmax and decreasing in half-log increments. If the clinical Cmax for an agent had not been determined, the highest concentration tested was 10 microM.\n2.3 Cell Culture. All cells were maintained in an incubator at 37 degrees C and 5% CO2 with 95% humidity. The PDC lines were cultured according to standard operating procedures established by the NCI PDMR. All PDCs were thawed and cultured in Matrigel-coated flasks prepared with a working solution of 1X Ham's F-12 nutrient mix, without supplementation (Invitrogen, cat. 11765054), 100 U/mL penicillin-streptomycin (Invitrogen, cat. 15140122), and 2.5% Matrigel (Corning Inc., cat. 354248) for the first three passages. The 857933-349-R-J2-PDC line was cultured in 6C/Colon 1B media, which includes advanced DMEM/F-12 (Thermo Fisher Scientific, cat. 12634028), 10 mM HEPES (Thermo Fisher Scientific, cat. 15630080), 1X GlutaMAX supplement (Thermo Fisher Scientific, cat. 35050061), 0.1 mg/mL primocin (InvivoGen, cat. ant-pm-2), 10% defined fetal bovine serum, heat inactivated (HyClone Laboratories Inc., cat. SH30070.03HI), 50% L-WRN conditioned media (ATCC, cat. CRL-3276), 1.25 mM N-Acetyl-L-cysteine (Sigma-Aldrich, cat. A9165), 10 mM nicotinamide (Sigma-Aldrich, cat. N0636), 1X B-27 supplement (Thermo Fisher Scientific, cat. 17504044), 1X N-2 supplement (Thermo Fisher Scientific, cat. 17502048), 10 microM Y-27632 dihydrochloride (Tocris Bioscience, cat. 1254), and 50 ng/mL human EGF recombinant protein (Thermo Fisher Scientific, cat. PHG0311). The 485176-168-R4-J1-PDC line was cultured in Panc media, which includes all 6C/Colon 1B media components plus 100 ng/mL human FGF-10 (Thermo Fisher Scientific, cat. 100-26), 500 nM SB-431542 (Selleckchem, cat. S1067), and gastrin (Tocris, cat. 3006).\n[…]", "data": [{"smiles": "C#Cc1c(F)ccc2cc(O)cc(-c3ncc4c(N5CC6CCC(C5)N6)nc(OCC56CCCN5CC(F)C6)nc4c3F)c12", "note": "(configuration not stated) + CN(C)c1ccc(Nc2c3ccc(NC(=O)CCN4CCCC4)cc3nc3cc(NC(=O)CCN4CCCC4)ccc23)cc1", "values": [{"measurement": "IC50", "setting": "second compound 0.0316 µM", "result": 4.17, "unit": "µM"}, {"measurement": "IC50", "setting": "second compound 0.1 µM", "result": 4.29, "unit": "µM"}, {"measurement": "IC50", "setting": "second compound 0.316 µM", "result": 5.21, "unit": "µM"}, {"measurement": "IC50", "setting": "second compound 1 µM", "result": 4.33, "unit": "µM"}, {"measurement": "IC50", "setting": "second compound 3.16 µM", "result": 2.94, "unit": "µM"}, {"measurement": "IC50", "setting": "second compound 10 µM", "result": 2.13, "unit": "µM"}, {"measurement": "viability, T/C", "setting": "second compound 0.0316 µM, first compound 0.0316 µM", "result": 92.1, "unit": "%"}, {"measurement": "viability, T/C", "setting": "second compound 0.0316 µM, first compound 0.1 µM", "result": 112, "unit": "%"}, {"measurement": "viability, T/C", "setting": "second compound 0.0316 µM, first compound 0.316 µM", "result": 94.8, "unit": "%"}, {"measurement": "viability, T/C", "setting": "second compound 0.0316 µM, first compound 1 µM", "result": 86.9, "unit": "%"}, {"measurement": "viability, T/C", "setting": "second compound 0.0316 µM, first compound 3.16 µM", "result": 58.8, "unit": "%"}, {"measurement": "viability, T/C", "setting": "second compound 0.0316 µM, first compound 10 µM", "result": 22.8, "unit": "%"}, {"measurement": "viability, T/C", "setting": "second compound 0.1 µM, first compound 0.0316 µM", "result": 114, "unit": "%"}, {"measurement": "viability, T/C", "setting": "second compound 0.1 µM, first compound 0.1 µM", "result": 100, "unit": "%"}, {"measurement": "viability, T/C", "setting": "second compound 0.1 µM, first compound 0.316 µM", "result": 98.3, "unit": "%"}, {"measurement": "viability, T/C", "setting": "second compound 0.1 µM, first compound 1 µM", "result": 86.2, "unit": "%"}, {"measurement": "viability, T/C", "setting": "second compound 0.1 µM, first compound 3.16 µM", "result": 56.7, "unit": "%"}, {"measurement": "viability, T/C", "setting": "second compound 0.1 µM, first compound 10 µM", "result": 26.1, "unit": "%"}, {"measurement": "viability, T/C", "setting": "second compound 0.316 µM, first compound 0.0316 µM", "result": 95, "unit": "%"}, {"measurement": "viability, T/C", "setting": "second compound 0.316 µM, first compound 0.1 µM", "result": 100, "unit": "%"}, {"measurement": "viability, T/C", "setting": "second compound 0.316 µM, first compound 0.316 µM", "result": 96.6, "unit": "%"}, {"measurement": "viability, T/C", "setting": "second compound 0.316 µM, first compound 1 µM", "result": 79.2, "unit": "%"}, {"measurement": "viability, T/C", "setting": "second compound 0.316 µM, first compound 3.16 µM", "result": 68.1, "unit": "%"}, {"measurement": "viability, T/C", "setting": "second compound 0.316 µM, first compound 10 µM", "result": 28.7, "unit": "%"}, {"measurement": "viability, T/C", "setting": "second compound 1 µM, first compound 0.0316 µM", "result": 89.4, "unit": "%"}, {"measurement": "viability, T/C", "setting": "second compound 1 µM, first compound 0.1 µM", "result": 72.7, "unit": "%"}, {"measurement": "viability, T/C", "setting": "second compound 1 µM, first compound 0.316 µM", "result": 87.8, "unit": "%"}, {"measurement": "viability, T/C", "setting": "second compound 1 µM, first compound 1 µM", "result": 79.3, "unit": "%"}, {"measurement": "viability, T/C", "setting": "second compound 1 µM, first compound 3.16 µM", "result": 59.5, "unit": "%"}, {"measurement": "viability, T/C", "setting": "second compound 1 µM, first compound 10 µM", "result": 24.6, "unit": "%"}, {"measurement": "viability, T/C", "setting": "second compound 3.16 µM, first compound 0.0316 µM", "result": 78.3, "unit": "%"}, {"measurement": "viability, T/C", "setting": "second compound 3.16 µM, first compound 0.1 µM", "result": 68.1, "unit": "%"}, {"measurement": "viability, T/C", "setting": "second compound 3.16 µM, first compound 0.316 µM", "result": 69.5, "unit": "%"}, {"measurement": "viability, T/C", "setting": "second compound 3.16 µM, first compound 1 µM", "result": 60.9, "unit": "%"}, {"measurement": "viability, T/C", "setting": "second compound 3.16 µM, first compound 3.16 µM", "result": 51.4, "unit": "%"}, {"measurement": "viability, T/C", "setting": "second compound 3.16 µM, first compound 10 µM", "result": 24.7, "unit": "%"}, {"measurement": "viability, T/C", "setting": "second compound 10 µM, first compound 0.0316 µM", "result": 64.8, "unit": "%"}, {"measurement": "viability, T/C", "setting": "second compound 10 µM, first compound 0.1 µM", "result": 68.7, "unit": "%"}, {"measurement": "viability, T/C", "setting": "second compound 10 µM, first compound 0.316 µM", "result": 58, "unit": "%"}, {"measurement": "viability, T/C", "setting": "second compound 10 µM, first compound 1 µM", "result": 84.2, "unit": "%"}, {"measurement": "viability, T/C", "setting": "second compound 10 µM, first compound 3.16 µM", "result": 40.2, "unit": "%"}, {"measurement": "viability, T/C", "setting": "second compound 10 µM, first compound 10 µM", "result": 2.3, "unit": "%"}]}]}
